Experiment [1] in a line: (§1) Effective concentration required to inhibit HIV replication in peripheral blood mononuclear cells (PBL). The experiment is classed as functional, Homo sapiens.
Experiment [2] deals with Human immunodeficiency virus type 1 protease (Human immunodeficiency virus 1, UniProt Q72874). Briefly: Inhibitory activity if the compound was determined against HIV protease.
Experiment [3] is described as follows: as §1. The experiment is classed as functional. The following applies: Homo sapiens.

Take `CC(C)[C@H](NC(=O)[C@H](Cc1cccc2ccccc12)CS(=O)(=O)C(C)(C)C)C(=O)NCP(N)(=O)CNC(=O)[C@@H](NC(=O)[C@H](Cc1cccc2ccccc12)CS(=O)(=O)C(C)(C)C)C(C)C`: the EC50 in experiment [1] (Homo sapiens) was > 10000 nM. The IC50 in experiment [2] came out at 5.5 nM.
Regarding `CC(C)[C@H](NC(=O)[C@H](Cc1cccc2ccccc12)CS(=O)(=O)C(C)(C)C)C(=O)NCP(=O)(CNC(=O)[C@@H](NC(=O)[C@H](Cc1cccc2ccccc12)CS(=O)(=O)C(C)(C)C)C(C)C)NN`, the EC50 in experiment [1] (Homo sapiens) is > 10000 nM. The same compound had an IC50 in experiment [2] of 8.5 nM.
As to `COP(=O)(CNC(=O)[C@@H](NC(=O)[C@H](Cc1cccc2ccccc12)CS(=O)(=O)C(C)(C)C)C(C)C)CNC(=O)[C@@H](NC(=O)[C@H](Cc1cccc2ccccc12)CS(=O)(=O)C(C)(C)C)C(C)C`, the EC50 in experiment [1] (Homo sapiens) was > 10000 nM. The compound also came in with an IC50 in experiment [2] of 950 nM.
With `CC(C)[C@H](NC(=O)[C@H](Cc1cccc2ccccc12)CS(=O)(=O)C(C)(C)C)C(=O)NCP(=O)(O)CNC(=O)[C@@H](NC(=O)[C@H](Cc1cccc2ccccc12)CS(=O)(=O)C(C)(C)C)C(C)C`, the 50% effective concentration (EC50) in experiment [1] (Homo sapiens) was > 10000 nM. This compound yielded an IC50 in experiment [2] of 1.1 nM.
In the case of `CC(C)[C@H](NC(=O)[C@H](Cc1cccc2ccccc12)CS(=O)(=O)C(C)(C)C)C(=O)N[C@H](Cc1ccccc1)P(=O)(O)[C@@H](Cc1ccccc1)NC(=O)[C@@H](NC(=O)[C@H](Cc1cccc2ccccc12)CS(=O)(=O)C(C)(C)C)C(C)C`, the EC50 in experiment [1] (Homo sapiens) is > 10000 nM. The IC50 in experiment [2] was found to be 85 nM.
Take `CC(C)[C@H](NC(=O)[C@H](Cc1cccc2ccccc12)CS(=O)(=O)C(C)(C)C)C(=O)N[C@H](Cc1ccccc1)P(N)(=O)[C@@H](Cc1ccccc1)NC(=O)[C@@H](NC(=O)[C@H](Cc1cccc2ccccc12)CS(=O)(=O)C(C)(C)C)C(C)C`: in experiment [1], the EC50 turned out to be 100 nM. Besides, the IC50 in experiment [2] came out at 1 nM.
Regarding `CC(C)[C@H](NC(=O)[C@H](Cc1cccc2ccccc12)CS(=O)(=O)C(C)(C)C)C(=O)NC(Cc1ccccc1)P(=O)(O)C(Cc1ccccc1)NC(=O)[C@@H](NC(=O)[C@H](Cc1cccc2ccccc12)CS(=O)(=O)C(C)(C)C)C(C)C` (single isomer, unassigned), the concentration for a half-maximal effect (EC50) in experiment [3] is > 10000 nM. In experiment [2], this compound showed an IC50 of 0.5 nM.
In the case of `CC(C)[C@H](NC(=O)[C@H](Cc1cccc2ccccc12)CS(=O)(=O)C(C)(C)C)C(=O)NC(Cc1ccccc1)P(N)(=O)C(Cc1ccccc1)NC(=O)[C@@H](NC(=O)[C@H](Cc1cccc2ccccc12)CS(=O)(=O)C(C)(C)C)C(C)C` (single isomer, unassigned), the EC50 in experiment [1] is > 10000 nM. Moreover, in experiment [2], the midpoint of inhibition, the IC50, lay at 250 nM.

The values are drawn from ChEMBL document CHEMBL1151027, “Inhibition of human immunodeficiency virus-1 protease by a C2-symmetrical phosphinic acid amide” (Bioorg Med Chem Lett, 1994).
